Test results taken from patent US20140288077A1, “SUBSTITUTED 4-PHENOXYPHENOL ANALOGS AS MODULATORS OF PROLIFERATING CELL NUCLEAR ANTIGEN ACTIVITY” (ST. JUDE CHILDREN'S RESEARCH HOSPITAL, priority 2011, published 2014).
Values joined by “and” are separate entries in the source; they are usually repeats but may differ in a detail not shown here. Equal values may be shown once.

What was measured:
XP2OS(SV40) cells = assay: TLS assay in mammalian cultured cells with cisplatin-cross-linked Pt-GTG plasmid; assay type: cell-based; details: 5 μM of T2AA
Procedure: The cisplatin-modified plasmid was constructed, and the TLS assay was performed as previously described (14) with some modifications. Briefly, two oligonucleotides, [NT] and [NT], were annealed and inserted between the sites of EcoRV and EcoRI in pUCS[…]. The resultant plasmid was designated as pUCS[…]+ BglII. […] This oligonucleotide has the cross-link at the underlined site of [NT]. An unmodified 13-mer oligonucleotide was used for the construction of control plasmid. These oligonucleotides were purified with HPLC and PAGE. […] The gapped duplex plasmid was incubated with a 2-fold molar excess of the purified 13-mer oligonucleotide, which is complementary to the gap sequence except for a bulge in the middle in the presence of ATP (1 mM) and T4 DNA ligase (New England Biolabs, Ipswich, MA) at 16° C. for 6 min. The covalently closed circle plasmid was purified with equilibrium centrifugation on a CsCl gradient. The plasmids with and without the cisplatin adduct are hereafter referred to as Pt-GTG and Mock-GTG, respectively. […] The plasmids were extracted from the cells by using the QIAprep spin miniprep kit (Qiagen), digested with the restriction endonuclease DpnI (New England Biolabs) to remove the unreplicated plasmids, and introduced into Escherichia coli strain DH5α. The E. coli was plated onto LB agar plates containing ampicillin, X-gal, and isopropyl-β-D-thioga-lactopyranoside. […] Therefore, TLS frequency (%) was defined as (number of blue colonies/number of total colonies)×100.

U2OS cells [1] = assay: Chromatin immunostaining of phospho(Ser33)RPA32; assay type: cell-based; details: 40 μM, 24 h, FIG. 26B
Procedure: The cells were fixed with 4% paraformaldehyde in PBS for 20 min at room temperature, rinsed three times with PBS for 5 min each, permeabilized with ice-cold methanol for 10 min at −20° C., and rinsed once with PBS for 5 min. The specimens were blocked with PBS containing 5% FBS and 0.03% Triton X-100 for 60 min, applied anti-PCNA antibody (1:3200) and anti-Polδ3 antibody (2.9 μg/ml) or anti-phospho(Ser^33)RPA32 antibody (4.0 μg/ml) in antibody buffer (PBS containing 1% FBS and 0.03% Triton X-100), incubated overnight in a humid chamber at 4° C., and rinsed with PBS three times for 5 min each at room temperature. The specimens were incubated with Alexa Fluor 555-conjugated goat anti-mouse IgG (Invitrogen) antibody (1:500) in the antibody buffer for 2 h in a humidified chamber at room temperature the dark, rinsed once with PBS for 5 min, incubated with Alexa Fluor 488-conjugated goat anti-rabbit IgG (Invitrogen) antibody (1:500) in the antibody buffer for 2 h in a humidified chamber at room temperature in the dark, and rinsed three times with PBS for 5 min. The coverslips were mounted VectaShield containing DAPI at 1 μg/ml (Vector Laboratories). Immunofluorescence imaging for chromatin was performed on a ClSi microscope (Nikon) with a Cascade 512B photomultiplier (Photometrics). Images were processed using EZC1 (Nikon) and Photoshop (Adobe) software. […]

U2OS cells [2] = assay: DNA replication assay (BrdU incorporation); assay type: cell-based; details: titration of compound, 24 h, FIG. 25A-C
Procedure: DNA replication in U2OS and/or HeLa cells were analyzed by the rates of bromodeoxyuridine (BrdU) incorporation by a method reported previously (Taddei, A., et al. (1999) J. Cell Biol. 147, 1153-1166.). For immunofluorescence, cells were propagated at a subconfluent density onto a coverslip in a 6-well culture plate the day before the assay. […] During the last 15 min in the incubation period, BrdU was added at a concentration of 10 μM. Cells were washed with PBS and fixed with 4% paraformaldehyde in PBS for 15 min at room temperature. After permeabilization with 0.2% Triton X-100 in PBS for 15 min, cells were treated with 4N hydrochloric acid for 10 min and extensively rinsed with PBS. After blocking cells with 3% FBS in PBS for 20 min, anti-BrdU monoclonal antibody (1 μg/ml; clone 44, BD Pharmingen) was added to the cells and incubated at room temperature for 1 h. Cells were rinsed with PBS three times for 5 min each. Antimouse IgG conjugated with Alexa Fluor 555 (Invitrogen) was added and incubated at room temperature for 30 min. […] Fluorescence microscopy was done on an E800 microscope (Nikon) with a DXM1120 digital camera (Nikon). […] For quantitative analyses, BrdU incorporation was measured with the APC BrdU Flow Kit (BD Pharmingen) following the manufacturer's instructions. […] The populations of BrdU-positive cells (a) and mean BrdU intensity in S-phase cells (b) were recorded. […]

U2OS cells [3] = assay: Growth of cells after treatment with cisplatin and T2AA and release (Alamar Blue); details: 18 h, then 3 days drug-free, FIG. 28B
Procedure: The cells were treated with drugs as indicated in a black (transparent flat bottom) 384-well or 96-well plate. Cellular viability was determined by using Alamar Blue reagent (Invitrogen) on an EnVision plate reader according to the manufacturer's recommendations and normalized with signal from wells of DMSO treatment=100% and of no cells=0%.
Viability of the cells was measured by Alamar Blue reagent, and signals were normalized with those of no cell well (0%) and cells with no drugs (100%). NT, no treatment. Error bars, S.D.

cells [4] = assay: Cell cycle analysis by flow cytometry (PI); assay type: cell-based; details: 20 μM, 24 h, FIG. 25E
U2OS cells [5] = assay: γH2AX staining by flow cytometry, T2AA and cisplatin; details: 18 h, FIG. 28A
Procedure: For γH2AX staining, cells were cultured at 4×10^5 cells/well of 12-well plates in 1 ml of medium, treated with drugs as indicated, trypsin-lifted and stained by using the FlowCellect H2A.X DNA Damage kit (FCCH025142, Millipore) according to the manufacturer's recommendations. All samples were filtered through 40-μm nylon mesh prior to running flow cytometry.
NT, no treatment. Error bars, S.D.

HeLa cells = assay: Immunostaining of phospho-Chk1 and γH2AX (DNA replication stress); assay type: cell-based; details: 4 h, FIG. 26A
cells [6] = assay: Apoptosis analysis by flow cytometry (Annexin-V and PI); assay type: cell-based; set-up: dose or concentration left out as unconfirmed; details: 5 days, FIG. 25G
Polδ3 = assay: Immunoblotting for Polδ3 in whole cell lysates; assay type: cell-based; details: U2OS cells, FIG. 24B
Procedure: The cells treated as indicated were washed twice with ice-cold PBS, collected in a spin tube, and lysed with radioimmune precipitation assay buffer supplemented with Halt protease inhibitor mixture and Halt phosphatase inhibitor mixture (Thermo Scientific) using approximately twice the volume of the cell pellet on ice for 0.5 h. Protein concentration was determined by a BCA assay (Thermo Scientific) according to the manufacturer's recommendation. Normalized amounts of samples were loaded on SDS-PAGE as indicated and electrotransferred to a PVDF membrane. The membrane was blocked with SuperBlock buffer (Thermo Scientific) and incubated with the indicated primary antibodies in SuperBlock at 4° C. overnight, rinsed with TBS, 0.05% Tween 20 three times for 10 min, incubated with the corresponding secondary IgG-HRP conjugate in SuperBlock at room temperature for 1 h, and rinsed with TBS, 0.05% Tween 20 for 15 min. Proteins probed on the membrane were visualized by chemiluminescence using WestPico reagent (Thermo Scientific) and developed on BioMax MR film (Eastman Kodak Co.).

Compound: N[C@H](CO)Cc1cc(I)c(Oc2ccc(O)cc2)c(I)c1 [Compound T2AA]
- Mock GTG plasmid Raito (%) blue/total, Total/Average (XP2OS(SV40) cells): 36.9 (100) %
- Pt-GTG plasmid Raito (%) blue/total, Total/Average (XP2OS(SV40) cells): 5.3 (14.2) %
- Mock GTG plasmid Raito (%) blue/total (XP2OS(SV40) cells; single experiments): 36.0% and 34.5% and 41.0% and 37.9% and 38.1% and 34.2%
- immunofluorescence of phospho-RPA32 in nuclei (U2OS cells [1]): increased
- BrdU incorporation (U2OS cells [2]): inhibited the BrdU incorporation significantly in a dose-dependent manner
- reduction of U2OS cell growth (U2OS cells [3]; 10 μM T2AA alone): less than 10%
- U2OS cell growth (U2OS cells [3]; cisplatin and T2AA together): significantly reduced
- cell cycle (cells [4]): arrested cells at S-phase
- γH2AX level (DNA damage response) (U2OS cells [5]; T2AA and cisplatin together): further increased much higher than the level combined from each single treatment
- γH2AX level (DNA damage response) (U2OS cells [5]; single agent): induced γH2AX only a little
- phosphorylation of Chk1 and H2AX (HeLa cells): phosphorylated
- apoptosis (Annexin-V / PI) (cells [6]): increased cellular populations in early apoptosis but not necrosis
- expression of Polδ3 protein in whole cell lysate (Polδ3): not reduced
